Tests used:
Details in all cases: three weeks after treatment
Amaranthus tuberculatus [1] = assay: Pre-emergence herbicidal evaluation, AMATA; assay type: in vivo
Source text: (§1) The treated pots are then placed on greenhouse benches, watered and cared for in accordance with conventional greenhouse procedures.

Alopecurus myosuroides [2] = assay: Pre-emergence herbicidal evaluation, ALOMY; assay type: in vivo
Source text: as §1

Apera spica venti [3] = assay: Pre-emergence herbicidal evaluation, APESV; assay type: in vivo
Source text: as §1

Echinochloa crus-galli [4] = assay: Pre-emergence herbicidal evaluation, ECHCG; assay type: in vivo
Source text: as §1

Setaria viridis [5] = assay: Pre-emergence herbicidal evaluation, SETVI; assay type: in vivo
Source text: as §1

Lolium perenne [6] = assay: Pre-emergence herbicidal evaluation, LOLPE; assay type: in vivo
Source text: as §1

Triticum aestivum [7] = assay: Pre-emergence herbicidal evaluation, TRZAW; assay type: in vivo
Source text: as §1

Hordeum vulgare [8] = assay: Pre-emergence herbicidal evaluation, HORVW; assay type: in vivo
Source text: as §1

Zea mays [9] = assay: Pre-emergence herbicidal evaluation, ZEAMX; assay type: in vivo
Source text: as §1

Glycine max [10] = assay: Pre-emergence herbicidal evaluation, GLXMA; assay type: in vivo
Source text: as §1

Oryza sativum [11] = assay: Pre-emergence herbicidal evaluation, ORYSA; assay type: in vivo
Source text: as §1

Amaranthus tuberculatus [12] = assay: Post-emergence herbicidal evaluation, AMATA; assay type: in vivo
Galium aparine = assay: Post-emergence herbicidal evaluation, GALAP
Description: (§2) The compounds of the invention are tested for pre- and post-emergence herbicidal activity.
(§3) Each pot is examined three weeks after treatment and phytotoxicity is assessed according to the rating system set forth below.
(§4) These acetone solutions are diluted with water and the resulting formulations applied at dosage levels equivalent of about 0.4 to 0.1 kg per hectare of test compound per pot. After spraying the plants are placed on greenhouse benches and are cared for in the usual manner, commensurate with conventional greenhouse practices.

Alopecurus myosuroides [13] = assay: Post-emergence herbicidal evaluation, ALOMY
Apera spica venti [14] = assay: Post-emergence herbicidal evaluation, APESV
Echinochloa crus-galli [15] = assay: Post-emergence herbicidal evaluation, ECHCG
Description: as §2, §3, §4

Setaria viridis [16] = assay: Post-emergence herbicidal evaluation, SETVI
Lolium perenne [17] = assay: Post-emergence herbicidal evaluation, LOLPE
Triticum aestivum [18] = assay: Post-emergence herbicidal evaluation, TRZAW
Hordeum vulgare [19] = assay: Post-emergence herbicidal evaluation, HORVW
Zea mays [20] = assay: Post-emergence herbicidal evaluation, ZEAMX
Glycine max [21] = assay: Post-emergence herbicidal evaluation, GLXMA
Description: as §3, §4

Oryza sativum [22] = assay: Post-emergence herbicidal evaluation, ORYSA

With `CC1=CC(N(C)C(=O)COc2nc3ccccc3o2)=CC(C)(C)C1` [Example 16] the “phytotoxicity rating AMATA” value (Amaranthus tuberculatus [1]; 0.100 kg/ha) was 0 (0 - No effect), the “phytotoxicity rating AMATA” value (Amaranthus tuberculatus [1]; 0.200 kg/ha) was 3 (3 - Moderate effect) and the “phytotoxicity rating AMATA” value (Amaranthus tuberculatus [1]; 0.400 kg/ha) was 3 (3 - Moderate effect). The “phytotoxicity rating AMATA” value (Amaranthus tuberculatus [1]; 0.800 kg/ha) was 7 (7 - Good herbicidal effect), the “phytotoxicity rating ALOMY” value (Alopecurus myosuroides [2]; 0.100 kg/ha) was 6 (6 - Herbicidal effect) and the “phytotoxicity rating ALOMY” value (Alopecurus myosuroides [2]; 0.200 kg/ha) was 8 (8 - Approaching complete kill). The “phytotoxicity rating ALOMY” value (Alopecurus myosuroides [2]; 0.400 kg/ha) was 8 (8 - Approaching complete kill), the “phytotoxicity rating ALOMY” value (Alopecurus myosuroides [2]; 0.800 kg/ha) was 9 (9 - Complete kill) and the “phytotoxicity rating APESV” value (Apera spica venti [3]; 0.200 kg/ha) was 4 (4 - Injury). For the same molecule, the “phytotoxicity rating APESV” value (Apera spica venti [3]; 0.400 kg/ha) was 8 (8 - Approaching complete kill), the “phytotoxicity rating APESV” value (Apera spica venti [3]; 0.800 kg/ha) was 9 (9 - Complete kill) and the “phytotoxicity rating ECHCG” value (Echinochloa crus-galli [4]; 0.100 kg/ha) was 5 (5 - Definite injury). For the same molecule, the “phytotoxicity rating ECHCG” value (Echinochloa crus-galli [4]; 0.200 kg/ha) was 6 (6 - Herbicidal effect), the “phytotoxicity rating ECHCG” value (Echinochloa crus-galli [4]; 0.400 kg/ha) was 7 (7 - Good herbicidal effect) and the “phytotoxicity rating ECHCG” value (Echinochloa crus-galli [4]; 0.800 kg/ha) was 9 (9 - Complete kill). For the same molecule, the “phytotoxicity rating SETVI” value (Setaria viridis [5]; 0.100 kg/ha) was 5 (5 - Definite injury), the “phytotoxicity rating SETVI” value (Setaria viridis [5]; 0.200 kg/ha) was 8 (8 - Approaching complete kill) and the “phytotoxicity rating SETVI” value (Setaria viridis [5]; 0.400 kg/ha) was 9 (9 - Complete kill). For the same molecule, the “phytotoxicity rating SETVI” value (Setaria viridis [5]; 0.800 kg/ha) was 9 (9 - Complete kill), the “phytotoxicity rating LOLPE” value (Lolium perenne [6]; 0.100 kg/ha) was 0 (0 - No effect) and the “phytotoxicity rating LOLPE” value (Lolium perenne [6]; 0.200 kg/ha) was 0 (0 - No effect). For the same molecule, the “phytotoxicity rating LOLPE” value (Lolium perenne [6]; 0.400 kg/ha) was 3 (3 - Moderate effect), the “phytotoxicity rating LOLPE” value (Lolium perenne [6]; 0.800 kg/ha) was 8 (8 - Approaching complete kill) and the “phytotoxicity rating TRZAW” value (Triticum aestivum [7]; 0.100 kg/ha) was 0 (0 - No effect). For the same molecule, the “phytotoxicity rating TRZAW” value (Triticum aestivum [7]; 0.200 kg/ha) was 0 (0 - No effect), the “phytotoxicity rating TRZAW” value (Triticum aestivum [7]; 0.400 kg/ha) was 0 (0 - No effect) and the “phytotoxicity rating TRZAW” value (Triticum aestivum [7]; 0.800 kg/ha) was 1 (1 - Trace effect). The “phytotoxicity rating HORVW” value (Hordeum vulgare [8]; 0.100 kg/ha) was 0 (0 - No effect), the “phytotoxicity rating HORVW” value (Hordeum vulgare [8]; 0.200 kg/ha) was 0 (0 - No effect) and the “phytotoxicity rating HORVW” value (Hordeum vulgare [8]; 0.400 kg/ha) was 2 (2 - Slight effect). The “phytotoxicity rating HORVW” value (Hordeum vulgare [8]; 0.800 kg/ha) was 3 (3 - Moderate effect), the “phytotoxicity rating ZEAMX” value (Zea mays [9]; 0.100 kg/ha) was 0 (0 - No effect) and the “phytotoxicity rating ZEAMX” value (Zea mays [9]; 0.200 kg/ha) was 0 (0 - No effect). For the same molecule, the “phytotoxicity rating ZEAMX” value (Zea mays [9]; 0.400 kg/ha) was 0 (0 - No effect), the “phytotoxicity rating ZEAMX” value (Zea mays [9]; 0.800 kg/ha) was 0 (0 - No effect) and the “phytotoxicity rating GLXMA” value (Glycine max [10]; 0.100 kg/ha) was 0 (0 - No effect). For the same molecule, the “phytotoxicity rating GLXMA” value (Glycine max [10]; 0.200 kg/ha) was 0 (0 - No effect), the “phytotoxicity rating GLXMA” value (Glycine max [10]; 0.400 kg/ha) was 0 (0 - No effect) and the “phytotoxicity rating GLXMA” value (Glycine max [10]; 0.800 kg/ha) was 0 (0 - No effect). The “phytotoxicity rating ORYSA” value (Oryza sativum [11]; 0.100 kg/ha) was 0 (0 - No effect), the “phytotoxicity rating ORYSA” value (Oryza sativum [11]; 0.200 kg/ha) was 0 (0 - No effect) and the “phytotoxicity rating ORYSA” value (Oryza sativum [11]; 0.400 kg/ha) was 2 (2 - Slight effect). The “phytotoxicity rating ORYSA” value (Oryza sativum [11]; 0.800 kg/ha) was 5 (5 - Definite injury), the “phytotoxicity rating AMATA” value (Amaranthus tuberculatus [12]; 0.100 kg/ha) was 3 (3 - Moderate effect) and the “phytotoxicity rating AMATA” value (Amaranthus tuberculatus [12]; 0.400 kg/ha) was 3 (3 - Moderate effect). The “phytotoxicity rating GALAP” value (Galium aparine; 0.100 kg/ha) was 3 (3 - Moderate effect), the “phytotoxicity rating GALAP” value (Galium aparine; 0.200 kg/ha) was 3 (3 - Moderate effect) and the “phytotoxicity rating GALAP” value (Galium aparine; 0.400 kg/ha) was 4 (4 - Injury). The “phytotoxicity rating ALOMY” value (Alopecurus myosuroides [13]; 0.100 kg/ha) was 2 (2 - Slight effect), the “phytotoxicity rating ALOMY” value (Alopecurus myosuroides [13]; 0.200 kg/ha) was 5 (5 - Definite injury) and the “phytotoxicity rating ALOMY” value (Alopecurus myosuroides [13]; 0.400 kg/ha) was 7 (7 - Good herbicidal effect). The “phytotoxicity rating APESV” value (Apera spica venti [14]; 0.100 kg/ha) was 0 (0 - No effect), the “phytotoxicity rating APESV” value (Apera spica venti [14]; 0.200 kg/ha) was 6 (6 - Herbicidal effect) and the “phytotoxicity rating APESV” value (Apera spica venti [14]; 0.400 kg/ha) was 4 (4 - Injury). For the same molecule, the “phytotoxicity rating ECHCG” value (Echinochloa crus-galli [15]; 0.100 kg/ha) was 0 (0 - No effect), the “phytotoxicity rating ECHCG” value (Echinochloa crus-galli [15]; 0.200 kg/ha) was 0 (0 - No effect) and the “phytotoxicity rating ECHCG” value (Echinochloa crus-galli [15]; 0.400 kg/ha) was 0 (0 - No effect). The “phytotoxicity rating SETVI” value (Setaria viridis [16]; 0.100 kg/ha) was 0 (0 - No effect), the “phytotoxicity rating SETVI” value (Setaria viridis [16]; 0.200 kg/ha) was 0 (0 - No effect) and the “phytotoxicity rating SETVI” value (Setaria viridis [16]; 0.400 kg/ha) was 0 (0 - No effect). For the same molecule, the “phytotoxicity rating LOLPE” value (Lolium perenne [17]; 0.100 kg/ha) was 4 (4 - Injury), the “phytotoxicity rating LOLPE” value (Lolium perenne [17]; 0.200 kg/ha) was 6 (6 - Herbicidal effect) and the “phytotoxicity rating LOLPE” value (Lolium perenne [17]; 0.400 kg/ha) was 7 (7 - Good herbicidal effect). For the same molecule, the “phytotoxicity rating TRZAW” value (Triticum aestivum [18]; 0.100 kg/ha) was 0 (0 - No effect), the “phytotoxicity rating TRZAW” value (Triticum aestivum [18]; 0.200 kg/ha) was 0 (0 - No effect) and the “phytotoxicity rating TRZAW” value (Triticum aestivum [18]; 0.400 kg/ha) was 0 (0 - No effect). The “phytotoxicity rating HORVW” value (Hordeum vulgare [19]; 0.100 kg/ha) was 0 (0 - No effect), the “phytotoxicity rating HORVW” value (Hordeum vulgare [19]; 0.200 kg/ha) was 0 (0 - No effect) and the “phytotoxicity rating HORVW” value (Hordeum vulgare [19]; 0.400 kg/ha) was 2 (2 - Slight effect). The “phytotoxicity rating ZEAMX” value (Zea mays [20]; 0.100 kg/ha) was 0 (0 - No effect), the “phytotoxicity rating ZEAMX” value (Zea mays [20]; 0.200 kg/ha) was 0 (0 - No effect) and the “phytotoxicity rating ZEAMX” value (Zea mays [20]; 0.400 kg/ha) was 0 (0 - No effect). The “phytotoxicity rating GLXMA” value (Glycine max [21]; 0.100 kg/ha) was 2 (2 - Slight effect), the “phytotoxicity rating GLXMA” value (Glycine max [21]; 0.200 kg/ha) was 3 (3 - Moderate effect) and the “phytotoxicity rating GLXMA” value (Glycine max [21]; 0.400 kg/ha) was 4 (4 - Injury). The “phytotoxicity rating ORYSA” value (Oryza sativum [22]; 0.100 kg/ha) was 0 (0 - No effect), the “phytotoxicity rating ORYSA” value (Oryza sativum [22]; 0.200 kg/ha) was 0 (0 - No effect) and the “phytotoxicity rating ORYSA” value (Oryza sativum [22]; 0.400 kg/ha) was 2 (2 - Slight effect).
